Source: patent US20260091020A1, “TREATMENT OF ACUTE CANNABINOID OVERDOSE” (Anebulo Pharmaceuticals, Inc., priority 2022, published 2026)
Entries after “also recorded” stand apart in the source; their conditions may differ.

Assays:
[1] = tested on: central nervous system effects of THC; test: Phase 2 randomized, double-blind, placebo-controlled THC challenge study, PD endpoints (10.5 mg THC + 50 or 100 mg Compound 1); assay type: in vivo, human; settings: for Proportion of subjects reporting feeling high: score of at least 20/100 on VAS feeling high scale
[2] = tested on: central nervous system effects of THC; test: THC challenge PD, 10.5 mg THC + 30 mg Compound 1 (Example 3); assay type: in vivo, human; settings: THC (10.5 mg) + Compound 1 (30 mg)
Description: Following the general methods of Example 1, the study design was adjusted such that groups received either (a) THC (10.5 mg)+placebo or (b) THC (10.5 mg)+Compound 1 (30 mg). Pharmacodynamic properties were then measured for Compound 1.

[3] = Safety/tolerability in the phase 2 THC challenge study (50 and 100 mg Compound 1); settings: for QTcF, mean increase from baseline: 3 hours post dose, 3.1 ms in placebo group
[4] = 10.5 mg THC + 50 or 100 mg ANEB-001, p<0.05, unpaired t-test
[5] = 10.5 mg THC + 50 or 100 mg Compound 1 vs THC alone
[6] = 10.5 mg THC + 50 or 100 mg Compound 1 vs THC alone, not statistically significant overall
[7] = 10.5 mg THC + 50 or 100 mg Compound 1 vs THC alone, overall p<0.01
[8] = 50 mg Compound 1 group (20 per arm)
[9] = 100 mg Compound 1 group (20 per arm)

CC(C)(C)NC(=O)N1CC(O[C@H](c2ccc(Cl)cc2)c2ccccc2C(F)(F)F)C1 [Compound 1, (R)—N-(tert-butyl)-3-((4-chlorophenyl)(2-(trifluoromethyl)phenyl)methoxy)azetidine-1-carboxamide]
Proportion of subjects reporting feeling high ([1]; 10.5 mg THC + 50 mg Compound 1): 10%
Responder Rate for Reduction in Feeling High ([1]; 10.5 mg THC + 50 mg or 100 mg Compound 1, p<0.01 vs THC alone): 60%
Proportion of subjects reporting feeling high ([1]; 10.5 mg THC + 100 mg Compound 1): 30%
Maximum change from baseline in body sway [1, 4]: significant reduction in the maximum change from baseline for body sway
Maximum change from baseline in heart rate [1, 4]: significant reduction in the maximum change from baseline for heart rate
VAS calmness [1, 5]: no overall significant difference between the treatment groups
VAS internal perception [1, 5]: no significant differences between treatments
VAS mood [1, 5]: no significant differences between treatments
Heart rate [1, 6]: trend towards normalization of heart rate; also recorded: trend to normalization of heart rate
THC-induced body sway [1, 6]: trend towards reduced body sway; also recorded: trended to improvement
VAS feeling high, time course ([1]; 10.5 mg THC + 50 or 100 mg Compound 1 vs THC alone, overall p<0.0001): highly significant reduction in feeling high; also recorded: Highly significant and sustained improvement
VAS alertness [1, 7]: significantly inhibited the reduction in alertness; also recorded: significant improvement in alertness
VAS external perception [1, 7]: significantly inhibited the change in perception; also recorded: Significant improvement at both dose levels
Body sway, VAS alertness and VAS feeling high vs. placebo [2]: improvements in metrics such as body sway, VAS alertness, and VAS feeling high
VAS nausea ([3]; 10.5 mg THC + 50 or 100 mg Compound 1 vs THC/placebo): No significant difference overall between treatment groups
Depressed mood, number of subjects [3, 8]: 1 subject
Feeling hot, number of subjects [3, 8]: 6 subjects
Hyperhidrosis, number of subjects [3, 8]: 6 subjects
Nausea, number of subjects [3, 8]: 13 subjects
Vomiting, number of subjects [3, 8]: 1 subject
QTcF, mean increase from baseline ([3]; 50 mg Compound 1 group): 7.9 ms
Heart rate, mean increase following dosing (up to) ([3]; 50 mg and 100 mg Compound 1 group, placebo group up to ~6 bpm): 3-4 bpm
Depressed mood, number of subjects [3, 9]: 2 subjects
Feeling hot, number of subjects [3, 9]: 4 subjects
Hyperhidrosis, number of subjects [3, 9]: 7 subjects
Nausea, number of subjects [3, 9]: 8 subjects
Vomiting, number of subjects [3, 9]: 6 subjects
QTcF, mean increase from baseline ([3]; 100 mg Compound 1 group): 9.9 ms
Increase in total bilirubin compared to baseline ([3]; 50 and 100 mg Compound 1 groups, 24 h post dose, 1.4 mol/L in placebo group): 5
Severity of adverse events ([3]; 50 and 100 mg Compound 1 with 10.5 mg THC): mild and transient except in the case of one subject in the 50 mg Compound 1 group who experienced moderate nausea and vomiting; also recorded: transient and of mild severity, except one case of vomiting of moderate severity in the 50 mg Compound 1 treatment group
AESI: systolic blood pressure increase compared to baseline ([3]; one subject, 100 mg Compound 1 group): > 30 mmHg
Overall safety and tolerability ([3]; single doses of 50 and 100 mg Compound 1): safe and well tolerated by most subjects
